{"source": "patent US20220241249A1", "about": "“PHARMACEUTICAL COMPOSITION AND KIT CONTAINING NOVEL PENAM DERIVATIVE OR SALT THEREOF AND ONE OR MORE COMPOUNDS SELECTED FROM beta-LACTAMASE INHIBITORY COMPOUND AND ANTIBACTERIAL COMPOUND OR SALTS THEREOF” (priority 2019, published 2022)", "format_in_all_cases": "cell-based", "key": {"[1]": {"test_system": "Klebsiella pneumoniae Y-1020 strain producing KPC-3 and SHV-12 (strain B)", "experiment": "MIC of test compound alone or with β-lactamase inhibitor at 4 μg/mL", "details": "Klebsiella pneumoniae, Strain B, read-out: MIC", "procedure": "(§1) By using a broth microdilution method, the combinational effect of a test compound and a β-lactamase inhibitor was evaluated.\n(§2) The evaluation test for antibacterial activity was performed in the same manner as in Test Example 1."}, "[2]": {"test_system": "Escherichia coli TK-3113 strain producing IMP-8 (strain D)", "experiment": "MIC of test compound alone or with β-lactamase inhibitor at 4 μg/mL", "details": "Escherichia coli", "procedure": "as §1, §2\nEscherichia coli TK-3113 strain producing IMP-8 (hereinafter, called strain D),\n(§3) An antibacterial activity evaluation test was performed in the same manner as in Test Example 6.\n(§4) As the bacterial strain, the strains B, C, and D producing β-lactamase and a Klebsiella pneumoniae Y-1069 strain (hereinafter, called strain F) producing OXA-48 and CTX-M-15 were used."}, "[3]": {"test_system": "Klebsiella pneumoniae Y-1069 strain producing OXA-48 and CTX-M-15 (strain F)", "experiment": "MIC of test compound alone or with β-lactamase inhibitor at 4 μg/mL", "details": "for MIC: Klebsiella pneumoniae, Strain F", "procedure": "as §2, §3, §4"}, "[4]": {"test_system": "Klebsiella pneumoniae Y-1133 strain producing NDM-1, OXA-48, and CTX-M-15 (strain C)", "experiment": "MIC of test compound alone or with β-lactamase inhibitor at 4 μg/mL", "details": "Klebsiella pneumoniae, with ZID at 4 μg/mL", "procedure": "as §1, §2\nKlebsiella pneumoniae Y-1133 strain producing NDM-1, OXA-48, and CTX-M-15 (hereinafter, called strain C),\nas §3, §4"}, "[5]": {"test_system": "NDM-1-containing Klebsiella pneumoniae strain (Y-1007)", "experiment": "Antibacterial activity evaluation test, MIC by broth microdilution (CLSI)", "details": "for MIC: Klebsiella pneumoniae", "in_short": "(§5)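 Cells scraped from overnight Mueller Hinton agar are brought to 0.5 McFarland density, then diluted tenfold. This inoculum is added to cation-adjusted medium with compound and cultured 16 to 20 hours at 35° C. before growth is scored by eye.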"}, "[6]": {"test_system": "IMP-1-containing Pseudomonas aeruginosa strain (S-2838)", "experiment": "Antibacterial activity evaluation test, MIC by broth microdilution (CLSI)", "details": "for MIC: Pseudomonas aeruginosa", "in_short": "as §5"}, "[7]": {"test_system": "VIM-2-containing Pseudomonas aeruginosa strain (S-3779)", "experiment": "Antibacterial activity evaluation test, MIC by broth microdilution (CLSI)", "details": "for MIC: Pseudomonas aeruginosa", "in_short": "as §5"}, "[8]": {"test_system": "AmpC-derepressed Pseudomonas aeruginosa mutant strain (S-3028)", "experiment": "Antibacterial activity evaluation test, MIC by broth microdilution (CLSI)", "details": "for MIC: Pseudomonas aeruginosa", "in_short": "as §5"}, "[9]": {"test_system": "KPC-2-containing Klebsiella pneumoniae strain (Y-995)", "experiment": "Antibacterial activity evaluation test, MIC by broth microdilution (CLSI)", "details": "for MIC: Klebsiella pneumoniae", "in_short": "as §5"}, "[10]": {"test_system": "CTX-M-15-containing Escherichia coli strain (TK-1747)", "experiment": "Antibacterial activity evaluation test, MIC by broth microdilution (CLSI)", "details": "for MIC: Escherichia coli", "in_short": "as §5"}, "[11]": {"test_system": "GES-19 and GES-20-containing Pseudomonas aeruginosa strain (S-3759)", "experiment": "Antibacterial activity evaluation test, MIC by broth microdilution (CLSI)", "details": "for MIC: Pseudomonas aeruginosa", "in_short": "as §5"}, "[12]": {"test_system": "Pseudomonas aeruginosa strain ATCC27853", "experiment": "Antibacterial activity evaluation test, MIC by broth microdilution (CLSI)", "details": "Pseudomonas aeruginosa, ATCC27853", "in_short": "as §5"}, "[13]": {"test_system": "OXA-48-containing Klebsiella pneumoniae strain (Y-1062)", "experiment": "Antibacterial activity evaluation test, MIC by broth microdilution (CLSI)", "details": "for MIC: Klebsiella pneumoniae", "in_short": "as §5"}, "[14]": {"details": "test compound alone (β-lactamase inhibitor N/A)"}}, "note": "Read-outs that look alike come from different tables or passages of the source.", "data": [{"smiles": "C=C(O/N=C(\\C(=O)NC1C(=O)N2C[C@@](C(=O)O)(N3CCN(NC(=O)C(=O)c4ccc(O)c(O)c4Cl)C3=O)S[C@H]12)c1csc(N)n1)C(=O)O", "note": "(stereo partly drawn) [Example 144, (3R,5R,6R)-6-((Z)-2-(2-aminothiazol-4-yl)-2-(((1-carboxyvinyl)-oxy)imino)acetamido)-3-(3-(2-(2-chloro-3,4-dihydroxyphenyl)-2-oxoacetamido)-2-oxo-imidazolidin-1-yl)-7-oxo-4-thia-1-azabicyclo-[3.2.0]heptane-3-car-boxylic acid]", "values": [{"measurement": "MIC", "setting": "[1]; [14]", "value": 1, "unit": "µg/mL"}, {"measurement": "MIC", "setting": "[1]; with AVI at 4 μg/mL", "value": 0.25, "unit": "µg/mL"}, {"measurement": "MIC", "setting": "[1]; with CVA at 4 μg/mL", "value": 0.25, "unit": "µg/mL"}, {"measurement": "MIC", "setting": "[1]; with NAC at 4 μg/mL", "value": "< 0.015", "unit": "µg/mL"}, {"measurement": "MIC", "setting": "[1]; with ZID at 4 μg/mL", "value": 0.03, "unit": "µg/mL"}, {"measurement": "MIC", "setting": "[2]; [14]", "value": 0.5, "unit": "µg/mL"}, {"measurement": "MIC", "setting": "[2]; with AVI at 4 μg/mL", "value": 0.25, "unit": "µg/mL"}, {"measurement": "MIC", "setting": "[2]; with CVA at 4 μg/mL", "value": 0.25, "unit": "µg/mL"}, {"measurement": "MIC", "setting": "[2]; with NAC at 4 μg/mL", "value": "< 0.015", "unit": "µg/mL"}, {"measurement": "MIC", "setting": "[2]; with SBT at 4 μg/mL", "value": 0.25, "unit": "µg/mL"}, {"measurement": "MIC", "setting": "[2]; with TAZ at 4 μg/mL", "value": 0.125, "unit": "µg/mL"}, {"measurement": "MIC", "setting": "[2]; with ZID at 4 μg/mL", "value": "< 0.015", "unit": "µg/mL"}, {"measurement": "MIC", "setting": "[3]; [14]", "value": 4, "unit": "µg/mL"}, {"measurement": "MIC", "setting": "[3]; with AVI at 4 μg/mL", "value": 0.25, "unit": "µg/mL"}, {"measurement": "MIC", "setting": "[3]; with CVA at 4 μg/mL", "value": 2, "unit": "µg/mL"}, {"measurement": "MIC", "setting": "[3]; with NAC at 4 μg/mL", "value": 0.06, "unit": "µg/mL"}, {"measurement": "MIC", "setting": "[3]; with SBT at 4 μg/mL", "value": 2, "unit": "µg/mL"}, {"measurement": "MIC", "setting": "[3]; with TAZ at 4 μg/mL", "value": 2, "unit": "µg/mL"}, {"measurement": "MIC", "setting": "[3]; with ZID at 4 μg/mL", "value": 0.03, "unit": "µg/mL"}, {"measurement": "antibacterial activity in combination with a β-lactamase inhibitor versus without", "setting": "[3]; for all the bacterial strains (strains B, C, D and F), summary of Tables 51 and 52", "value": "higher antibacterial activity"}, {"measurement": "MIC", "setting": "[4]", "value": "< 0.015", "unit": "µg/mL"}, {"measurement": "Antibacterial activity (MIC) Klebsiella pneumoniae Y-1007", "setting": "[5]; Klebsiella pneumoniae Y-1007", "value": "< 0.12", "unit": "µg/mL"}, {"measurement": "Antibacterial activity (MIC) Pseudomonas aeruginosa S-2838", "setting": "[6]; Pseudomonas aeruginosa S-2838", "value": 32, "unit": "µg/mL"}, {"measurement": "Antibacterial activity (MIC) Pseudomonas aeruginosa S-3779", "setting": "[7]; Pseudomonas aeruginosa S-3779", "value": 0.25, "unit": "µg/mL"}, {"measurement": "Antibacterial activity (MIC) Pseudomonas aeruginosa S-3028", "setting": "[8]; Pseudomonas aeruginosa S-3028", "value": "< 0.12", "unit": "µg/mL"}, {"measurement": "Antibacterial activity (MIC) Klebsiella pneumoniae Y-995", "setting": "[9]; Klebsiella pneumoniae Y-995", "value": "< 0.12", "unit": "µg/mL"}, {"measurement": "Antibacterial activity (MIC) Escherichia coli TK-1747", "setting": "[10]; Escherichia coli TK-1747", "value": "< 0.12", "unit": "µg/mL"}, {"measurement": "Antibacterial activity (MIC) Pseudomonas aeruginosa S-3759", "setting": "[11]; Pseudomonas aeruginosa S-3759", "value": 1, "unit": "µg/mL"}, {"measurement": "Antibacterial activity (MIC) Pseudomonas aeruginosa ATCC 27853", "setting": "[12]", "value": 0.25, "unit": "µg/mL"}, {"measurement": "Antibacterial activity (MIC) Klebsiella pneumoniae Y-1062", "setting": "[13]; Klebsiella pneumoniae Y-1062", "value": 0.5, "unit": "µg/mL"}]}, {"smiles": "CCC[C@H](O/N=C(\\C(=O)NC1C(=O)N2C[C@@](C(=O)O)(N3CCN(NC(=O)C(=O)c4ccc(O)c(O)c4Cl)C3=O)S[C@H]12)c1csc(N)n1)C(=O)O", "note": "(stereo partly drawn) [Example 115, (3R,5R,6R)-6-((Z)-2-(2-aminothiazol-4-yl)-2-(((S)-1-carboxy-butoxy)imino)aceta-mido)-3-(3-(2-(2-chloro-3,4-dihydroxy-phenyl)-2-oxoaceta-mido)-2-oxoimidazol-idin-1-yl)-7-oxo-4-thia-1-azabicyclo[3.2.0]-heptane-3-carboxylic acid]", "values": [{"measurement": "MIC", "setting": "[5]", "value": "< 0.06", "unit": "µg/mL"}, {"measurement": "MIC", "setting": "[6]", "value": 1, "unit": "µg/mL"}, {"measurement": "MIC", "setting": "[7]", "value": 0.5, "unit": "µg/mL"}, {"measurement": "MIC", "setting": "[8]", "value": 0.12, "unit": "µg/mL"}, {"measurement": "MIC", "setting": "[9]", "value": 0.25, "unit": "µg/mL"}, {"measurement": "MIC", "setting": "[10]", "value": 0.25, "unit": "µg/mL"}, {"measurement": "MIC", "setting": "[11]", "value": 0.5, "unit": "µg/mL"}, {"measurement": "MIC", "setting": "[12]", "value": 0.5, "unit": "µg/mL"}, {"measurement": "MIC", "setting": "[13]", "value": 1, "unit": "µg/mL"}]}, {"smiles": "CC(C)(O/N=C(\\C(=O)N[C@@H]1C(=O)N2C[C@@](C(=O)O)(N3CC(=O)N(NC(=O)C(=O)c4ccc(O)c(O)c4Cl)CC3=O)S[C@H]12)c1csc(N)n1)C(=O)O", "note": "[Example 82, (3R,5R,6R)-6-((Z)-2-(2-aminothiazol-4-yl)-2-(((2-carboxypropan-2-yl)oxy)imino)acetamido)-3-(4-(2-(2-chloro-3,4-dihydroxyphenyl)-2-oxoacetamido)-2,5-dioxopiperazin-1-yl)-7-oxo-4-thia-1-azabicyclo[3.2.0]heptane-3-carboxylic acid]", "values": [{"measurement": "MIC", "setting": "[5]", "value": 0.5, "unit": "µg/mL"}, {"measurement": "MIC", "setting": "[6]", "value": 4, "unit": "µg/mL"}, {"measurement": "MIC", "setting": "[7]", "value": 1, "unit": "µg/mL"}, {"measurement": "MIC", "setting": "[8]", "value": 4, "unit": "µg/mL"}, {"measurement": "MIC", "setting": "[9]", "value": 4, "unit": "µg/mL"}, {"measurement": "MIC", "setting": "[10]", "value": 1, "unit": "µg/mL"}, {"measurement": "MIC", "setting": "[11]", "value": 2, "unit": "µg/mL"}, {"measurement": "MIC", "setting": "[12]", "value": 0.5, "unit": "µg/mL"}, {"measurement": "MIC", "setting": "[13]", "value": 2, "unit": "µg/mL"}]}, {"smiles": "CC(C)(O/N=C(\\C(=O)N[C@@H]1C(=O)N2C[C@@](C(=O)O)(N3CCN(NC(=O)CCNC(=O)C(=O)c4ccc(O)c(O)c4Cl)C3=O)S[C@H]12)c1csc(N)n1)C(=O)O", "note": "[Example 30, (3R,5R,6R)-6-((Z)-2-(2-aminothiazol-4-yl)-2-(((2-carboxypropan-2-yl)oxy)imino)acetamido)-3-(3-(3-(2-(2-chloro-3,4-dihydroxyphenyl)-2-oxoacetamido)propanamido)-2-oxoimidazolidin-1-yl)-7-oxo-4-thia-1-azabicyclo[3.2.0]heptane-3-carboxylic acid]", "values": [{"measurement": "MIC", "setting": "[5]", "value": "< 0.06", "unit": "µg/mL"}, {"measurement": "MIC", "setting": "[6]", "value": 0.5, "unit": "µg/mL"}, {"measurement": "MIC", "setting": "[7]", "value": 0.5, "unit": "µg/mL"}, {"measurement": "MIC", "setting": "[8]", "value": "< 0.06", "unit": "µg/mL"}, {"measurement": "MIC", "setting": "[9]", "value": 0.25, "unit": "µg/mL"}, {"measurement": "MIC", "setting": "[10]", "value": 0.25, "unit": "µg/mL"}, {"measurement": "MIC", "setting": "[11]", "value": 0.5, "unit": "µg/mL"}, {"measurement": "MIC", "setting": "[12]", "value": 0.25, "unit": "µg/mL"}, {"measurement": "MIC", "setting": "[13]", "value": 0.5, "unit": "µg/mL"}]}]}
